Reference: patent US10406239B2, “Water-soluble docetaxel anticancer drug compound and preparation method and use thereof” (NANJING YOUYI MEDICAL TECHNOLOGY CO., LTD, priority 2015, dated 2019)
Marks after values point to notes of the source that are not given here.

How the values were obtained:
[1] = system: A549 human lung cancer xenografts; assay: Growth inhibition on A549 human lung cancer xenografts in nude mice; format: in vivo, BALB/c nude mice; settings: for Tumor inhibition rate: by tumor weight; for Tumor weight: tumors excised after 21 days
Experimental: (§1) The dose volume was 0.4 ml per 20 g, that is, the dose was 96 mg/kg. Then, the solution was diluted to other desired concentrations with 0.9% sodium chloride solution.
(§2) Docetaxel injection, manufactured by Jiangsu Hengrui Pharmaceutical Co., Ltd., lot number: 15011215, specification: 0.5 ml: 20 mg. Formulation method: during use, 20 mg of docetaxel injection of the above specification was added to 1.5 ml of a solvent for the docetaxel injection to give a concentration of 10 mg/ml, and then fully diluted with saline to 1 mg/ml. The dose volume was 0.2 ml per 20 g, that is, the dose was 10 mg/kg.
(§3) BALB/c nude mice, provided by Changzhou Kavens Laboratory Animal Co., Ltd. (Experimental Animal Production License: SOCK (Su) 2011-0003), age: 35-40 days, weight: 18-24 g, female.
A549 human lung cancer xenografts in nude mice was established by inoculating human lung cancer A549 cell line subcutaneously to the axillary fossa of nude mice in an amount of 2*10^6 cells/animal.
(§4) Human lung cancer A549 cell line in logarithmic growth phase was prepared into a cell suspension of 1×10^8 cells/ml under aseptic conditions and subcutaneously inoculated to the right axillary fossa of nude mice in a volume of 0.1 ml. The size of the xenograft in the nude mice was measured with a vernier caliper. After the xenografts grew to 100-300 mm^3, the animals were randomly grouped. The anti-tumor effect of the test agents was dynamically observed by measuring the size of the xenografts. The size of the xenografts was measured once every 3 days. The dose volume was 0.4 ml/20 g. Twenty-one days later, the mice were sacrificed and the tumors were surgically excised and weighed. The tumor volume (TV) is calculated by a formula below: TV=½×a×b^2
The relative tumor volume (RTV) is calculated based on the measurements by a formula: RTV=Vt/V0, where V0 is the measured tumor volume upon being caged (i.e., d0) and Vt is the tumor volume at each measurement. The evaluation index of the anti-tumor activity is relative tumor growth rate T/C (%), which is calculated by a formula below: […]
in which TRTV is the RTV of the treatment group; and CRTV is the RTV of the negative control group.
The tumor inhibition rate is calculated by a formula below: […]
Tweight is the average tumor weight of the treatment group; and Cweight is the average tumor weight of the negative control group.

[2] = Effect on body weight of nude mice with A549 human lung cancer xenografts; format: in vivo, BALB/c nude mice; settings: for Initial body weight: before dosing; for Final body weight: once every 3 days, end of study (21 days)
Experimental: as §1, §2, §3, §4

[3] = background statement; cited from earlier work
[4] = background statement; cited from earlier work; remark: listed apart in the source
[5] = Docetaxel 10 mg/kg, tail vein, once every 3 days, 7 doses, 21 d
[6] = Docetaxel 10 mg/kg, tail vein, once every 3 days, 3 d
[7] = Docetaxel 10 mg/kg, tail vein, once every 3 days, 6 d
[8] = Docetaxel 10 mg/kg, tail vein, once every 3 days, 9 d
[9] = Docetaxel 10 mg/kg, tail vein, once every 3 days, 12 d
[10] = Docetaxel 10 mg/kg, tail vein, once every 3 days, 15 d
[11] = Docetaxel 10 mg/kg, tail vein, once every 3 days, 18 d
[12] = XBB-023 24 mg/kg, tail vein, once every 3 days, 7 doses, 21 d
[13] = XBB-023 24 mg/kg, tail vein, once every 3 days, 3 d
[14] = XBB-023 24 mg/kg, tail vein, once every 3 days, 6 d
[15] = XBB-023 24 mg/kg, tail vein, once every 3 days, 9 d
[16] = XBB-023 24 mg/kg, tail vein, once every 3 days, 12 d
[17] = XBB-023 24 mg/kg, tail vein, once every 3 days, 15 d
[18] = XBB-023 24 mg/kg, tail vein, once every 3 days, 18 d
[19] = XBB-023 48 mg/kg, tail vein, once every 3 days, 7 doses, 21 d
[20] = XBB-023 48 mg/kg, tail vein, once every 3 days, 3 d
[21] = XBB-023 48 mg/kg, tail vein, once every 3 days, 6 d
[22] = XBB-023 48 mg/kg, tail vein, once every 3 days, 9 d
[23] = XBB-023 48 mg/kg, tail vein, once every 3 days, 12 d
[24] = XBB-023 48 mg/kg, tail vein, once every 3 days, 15 d
[25] = XBB-023 48 mg/kg, tail vein, once every 3 days, 18 d
[26] = XBB-023 96 mg/kg, tail vein, once every 3 days, 7 doses, 21 d
[27] = XBB-023 96 mg/kg, tail vein, once every 3 days, 3 d
[28] = XBB-023 96 mg/kg, tail vein, once every 3 days, 6 d
[29] = XBB-023 96 mg/kg, tail vein, once every 3 days, 9 d
[30] = XBB-023 96 mg/kg, tail vein, once every 3 days, 12 d
[31] = XBB-023 96 mg/kg, tail vein, once every 3 days, 15 d
[32] = XBB-023 96 mg/kg, tail vein, once every 3 days, 18 d

Compound: CC(=O)O[C@@]12CO[C@@H]1C[C@H](O)[C@@]1(C)C(=O)[C@H](O)C3=C(C)[C@@H](OC(=O)[C@H](O)[C@@H](NC(=O)OC(C)(C)C)c4ccccc4)C[C@@](O)([C@@H](OC(=O)c4ccccc4)[C@H]21)C3(C)C [Docetaxel]
- Tumor volume ([1]; Docetaxel 10 mg/kg group, 0 d (baseline)): 100.58 ± 20.87 mm^3
- Tumor inhibition rate ([1]; Docetaxel 10 mg/kg, once every 3 days, 7 doses): 72.16%
- Tumor inhibition rate ([1]; Docetaxel 10 mg/kg, once every 3 days, 7 doses, listed as docetaxel): 72.16%
- Tumor weight ([1]; Docetaxel 10 mg/kg, once every 3 days): 0.33 ± 0.15 g
- RTV (relative tumor volume) [1, 5]: 2.40 ± 0.99
- T/C (relative tumor growth rate) [1, 5]: 21.15%
- Tumor volume [1, 5]: 226.65 ± 56.45* mm^3
- T/C (relative tumor growth rate) ([1]; Docetaxel 10 mg/kg, tail vein, once every 3 days, 7 doses, 21 d, listed as docetaxel): 21.15%
- RTV (relative tumor volume) [1, 6]: 1.62 ± 0.37
- T/C (relative tumor growth rate) [1, 6]: 56.09%
- Tumor volume [1, 6]: 157.30 ± 26.48** mm^3
- RTV (relative tumor volume) [1, 7]: 1.49 ± 0.39
- T/C (relative tumor growth rate) [1, 7]: 41.39%
- Tumor volume [1, 7]: 147.47 ± 41.99** mm^3
- RTV (relative tumor volume) [1, 8]: 1.59 ± 0.47
- T/C (relative tumor growth rate) [1, 8]: 34.23%
- Tumor volume [1, 8]: 155.55 ± 44.12** mm^3
- RTV (relative tumor volume) [1, 9]: 2.15 ± 0.81
- T/C (relative tumor growth rate) [1, 9]: 33.77%
- Tumor volume [1, 9]: 208.93 ± 68.26** mm^3
- RTV (relative tumor volume) [1, 10]: 2.24 ± 0.43
- T/C (relative tumor growth rate) [1, 10]: 26.80%
- Tumor volume [1, 10]: 224.22 ± 57.63** mm^3
- RTV (relative tumor volume) [1, 11]: 1.87 ± 0.28
- T/C (relative tumor growth rate) [1, 11]: 19.30%
- Tumor volume [1, 11]: 186.80 ± 42.03** mm^3
- effect on the body weight of the experimental mice (in words) ([2]; 10 mg/kg docetaxel, P<0.01): Extremely significant effect
- Initial body weight ([2]; Docetaxel 10 mg/kg group): 22.50 ± 1.26 g
- Final body weight ([2]; Docetaxel 10 mg/kg): 15.17 ± 0.90 g
- intracellular concentration higher than that of paclitaxel [3]: 3 times
- oral bioavailability [4]: less than 8%

Compound: Polyethylene Glycol Monomethyl Ether (Mn=1000) Docetaxel-2′-Diglycolate [XBB-023]
- Tumor volume ([1]; XBB-023 24 mg/kg group, 0 d (baseline)): 101.08 ± 20.73 mm^3
- Tumor inhibition rate ([1]; XBB-023 24 mg/kg, once every 3 days, 7 doses, 24 mg/kg): 34.73%
- Tumor weight ([1]; XBB-023 24 mg/kg, once every 3 days): 0.78 ± 0.22 g
- RTV (relative tumor volume) [1, 12]: 6.39 ± 0.81
- Tumor volume [1, 12]: 660.00 ± 210.71* mm^3
- T/C (relative tumor growth rate) ([1]; XBB-023 24 mg/kg, tail vein, once every 3 days, 7 doses, 21 d, 24 mg/kg): 56.30%
- RTV (relative tumor volume) [1, 13]: 2.27 ± 0.52
- T/C (relative tumor growth rate) [1, 13]: 78.90%
- Tumor volume [1, 13]: 232.16 ± 79.30* mm^3
- RTV (relative tumor volume) [1, 14]: 2.38 ± 0.37
- T/C (relative tumor growth rate) [1, 14]: 66.13%
- Tumor volume [1, 14]: 244.45 ± 80.88** mm^3
- RTV (relative tumor volume) [1, 15]: 2.85 ± 0.39
- T/C (relative tumor growth rate) [1, 15]: 61.19%
- Tumor volume [1, 15]: 289.34 ± 82.35** mm^3
- RTV (relative tumor volume) [1, 16]: 3.68 ± 0.51
- T/C (relative tumor growth rate) [1, 16]: 57.80%
- Tumor volume [1, 16]: 371.41 ± 95.01** mm^3
- RTV (relative tumor volume) [1, 17]: 4.91 ± 1.58
- T/C (relative tumor growth rate) [1, 17]: 58.72%
- Tumor volume [1, 17]: 522.84 ± 249.70* mm^3
- RTV (relative tumor volume) [1, 18]: 5.68 ± 1.66
- T/C (relative tumor growth rate) [1, 18]: 58.60%
- Tumor volume [1, 18]: 602.28 ± 288.50** mm^3
- Tumor volume ([1]; XBB-023 48 mg/kg group, 0 d (baseline)): 101.49 ± 18.47 mm^3
- Tumor inhibition rate ([1]; XBB-023 48 mg/kg, once every 3 days, 7 doses, 48 mg/kg): 68.55%
- Tumor weight ([1]; XBB-023 48 mg/kg, once every 3 days): 0.38 ± 0.14 g
- RTV (relative tumor volume) [1, 19]: 2.90 ± 0.37
- Tumor volume [1, 19]: 299.13 ± 86.76** mm^3
- T/C (relative tumor growth rate) ([1]; XBB-023 48 mg/kg, tail vein, once every 3 days, 7 doses, 21 d, 48 mg/kg): 25.56%
- RTV (relative tumor volume) [1, 20]: 1.59 ± 0.35
- T/C (relative tumor growth rate) [1, 20]: 55.23%
- Tumor volume [1, 20]: 159.57 ± 38.77** mm^3
- RTV (relative tumor volume) [1, 21]: 1.80 ± 0.18
- T/C (relative tumor growth rate) [1, 21]: 49.90%
- Tumor volume [1, 21]: 180.89 ± 31.39** mm^3
- T/C (relative tumor growth rate) [1, 22]: 52.80%
- Tumor volume [1, 22]: 245.14 ± 40.82** mm^3
- RTV (relative tumor volume) [1, 23]: 3.02 ± 0.53
- T/C (relative tumor growth rate) [1, 23]: 47.50%
- Tumor volume [1, 23]: 302.66 ± 60.48 mm^3
- RTV (relative tumor volume) [1, 24]: 2.61 ± 0.47
- T/C (relative tumor growth rate) [1, 24]: 31.23%
- Tumor volume [1, 24]: 264.78 ± 68.29** mm^3
- RTV (relative tumor volume) [1, 25]: 2.50 ± 0.37
- T/C (relative tumor growth rate) [1, 25]: 25.76%
- Tumor volume [1, 25]: 257.22 ± 76.37** mm^3
- Tumor volume ([1]; XBB-023 96 mg/kg group, 0 d (baseline)): 102.83 ± 14.74 mm^3
- inhibition rate higher than that in the positive control group ([1]; XBB-023 96 mg/kg versus 10 mg/kg docetaxel): 16.29%
- Tumor inhibition rate ([1]; XBB-023 96 mg/kg, once every 3 days, 7 doses, 96 mg/kg): 88.45%
- Tumor weight ([1]; XBB-023 96 mg/kg, once every 3 days): 0.14 ± 0.03 g
- RTV (relative tumor volume) [1, 26]: 1.46 ± 0.32
- Tumor volume [1, 26]: 146.15 ± 20.51** mm^3
- T/C (relative tumor growth rate) ([1]; XBB-023 96 mg/kg, tail vein, once every 3 days, 7 doses, 21 d, 96 mg/kg): 12.83%
- RTV (relative tumor volume) [1, 27]: 1.54 ± 0.31
- T/C (relative tumor growth rate) [1, 27]: 53.47%
- Tumor volume [1, 27]: 154.44 ± 15.73** mm^3
- RTV (relative tumor volume) [1, 28]: 1.26 ± 0.15
- T/C (relative tumor growth rate) [1, 28]: 35.11%
- Tumor volume [1, 28]: 129.15 ± 19.29** mm^3
- RTV (relative tumor volume) [1, 29]: 1.54 ± 0.22
- T/C (relative tumor growth rate) [1, 29]: 33.18%
- Tumor volume [1, 29]: 15628 ± 17.71** mm^3
- RTV (relative tumor volume) [1, 30]: 1.54 ± 0.33
- T/C (relative tumor growth rate) [1, 30]: 24.19%
- Tumor volume [1, 30]: 156.91 ± 35.05** mm^3
- RTV (relative tumor volume) [1, 31]: 1.06 ± 0.28
- T/C (relative tumor growth rate) [1, 31]: 12.63%
- Tumor volume [1, 31]: 107.31 ± 27.45** mm^3
- RTV (relative tumor volume) [1, 32]: 1.13 ± 0.21
- T/C (relative tumor growth rate) [1, 32]: 11.66%
- Tumor volume [1, 32]: 114.16 ± 17.61** mm^3
- effect on the body weight of the experimental mice (in words) ([2]; 48 mg/kg XBB-023, P<0.05): significant effect
- effect on the body weight of the experimental mice (in words) ([2]; 96 mg/kg XBB-023, P<0.01): Extremely significant effect
- Initial body weight ([2]; XBB-023 24 mg/kg group): 22.17 ± 1.57 g
- Final body weight ([2]; XBB-023 24 mg/kg): 23.17 ± 0.90 g
- Initial body weight ([2]; XBB-023 48 mg/kg group): 21.33 ± 1.37 g
- Final body weight ([2]; XBB-023 48 mg/kg): 20.00 ± 0.82 g
- Initial body weight ([2]; XBB-023 96 mg/kg group): 22.00 ± 0.82 g
- Final body weight ([2]; XBB-023 96 mg/kg): 16.00 ± 2.31 g
